The source of these data is article PMC9133015 (Nature Communications, 2022).

Holding throughout (assay): Kinase inhibitor specificity profiling (Reaction Biology Corporation)
Common to all, as to assay type: biochemical
Common to all, as to parameters: % Enzyme Activity (relative to DMSO controls): concentration or dose not given beside the values

The target in assay [1] is T1, panel of 370 protein kinases (Homo sapiens, UniProt Q96GD4).
T1 construct: purchased Reaction Biology Corporation (assay service)
To be noted: 2 h, kinase AURORA B; read-out: % Enzyme Activity (relative to DMSO controls).

In assay [2] the target is T2, panel of 370 protein kinases (Homo sapiens, UniProt P54764).
T2 construct: purchased Reaction Biology Corporation (assay service)
T2 sequence (P54764 20-986): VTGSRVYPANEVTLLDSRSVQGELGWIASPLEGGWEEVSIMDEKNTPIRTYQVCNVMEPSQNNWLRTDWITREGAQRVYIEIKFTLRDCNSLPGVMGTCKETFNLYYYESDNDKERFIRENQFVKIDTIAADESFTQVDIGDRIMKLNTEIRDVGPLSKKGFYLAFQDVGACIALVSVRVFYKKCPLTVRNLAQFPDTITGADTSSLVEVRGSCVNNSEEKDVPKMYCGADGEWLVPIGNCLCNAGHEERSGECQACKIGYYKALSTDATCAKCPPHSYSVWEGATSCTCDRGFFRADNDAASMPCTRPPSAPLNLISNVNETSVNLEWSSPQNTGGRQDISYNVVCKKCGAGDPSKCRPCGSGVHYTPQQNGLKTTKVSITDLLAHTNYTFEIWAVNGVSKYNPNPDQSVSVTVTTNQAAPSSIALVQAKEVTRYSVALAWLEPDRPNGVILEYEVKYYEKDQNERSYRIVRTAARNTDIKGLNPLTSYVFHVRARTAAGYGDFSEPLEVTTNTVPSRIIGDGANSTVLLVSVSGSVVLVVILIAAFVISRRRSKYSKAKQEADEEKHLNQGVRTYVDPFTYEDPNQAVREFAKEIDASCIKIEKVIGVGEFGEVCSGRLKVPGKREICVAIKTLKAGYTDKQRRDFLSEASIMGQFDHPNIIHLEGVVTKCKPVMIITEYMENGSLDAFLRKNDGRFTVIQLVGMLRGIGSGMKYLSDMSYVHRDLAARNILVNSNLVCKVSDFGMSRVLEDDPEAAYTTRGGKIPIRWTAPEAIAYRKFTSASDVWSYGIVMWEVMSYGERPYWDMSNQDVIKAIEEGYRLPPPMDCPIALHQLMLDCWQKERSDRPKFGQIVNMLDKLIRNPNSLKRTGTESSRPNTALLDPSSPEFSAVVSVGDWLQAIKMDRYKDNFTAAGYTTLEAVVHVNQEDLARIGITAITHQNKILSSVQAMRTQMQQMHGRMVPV
The settings on record: 2 h, kinase EPHA4; read-out: % Enzyme Activity (relative to DMSO controls).

The target of assay [3] is T3, panel of 370 protein kinases (Homo sapiens, UniProt O75385).
T3 construct: purchased Reaction Biology Corporation (assay service)
T3 sequence (O75385 whole entry): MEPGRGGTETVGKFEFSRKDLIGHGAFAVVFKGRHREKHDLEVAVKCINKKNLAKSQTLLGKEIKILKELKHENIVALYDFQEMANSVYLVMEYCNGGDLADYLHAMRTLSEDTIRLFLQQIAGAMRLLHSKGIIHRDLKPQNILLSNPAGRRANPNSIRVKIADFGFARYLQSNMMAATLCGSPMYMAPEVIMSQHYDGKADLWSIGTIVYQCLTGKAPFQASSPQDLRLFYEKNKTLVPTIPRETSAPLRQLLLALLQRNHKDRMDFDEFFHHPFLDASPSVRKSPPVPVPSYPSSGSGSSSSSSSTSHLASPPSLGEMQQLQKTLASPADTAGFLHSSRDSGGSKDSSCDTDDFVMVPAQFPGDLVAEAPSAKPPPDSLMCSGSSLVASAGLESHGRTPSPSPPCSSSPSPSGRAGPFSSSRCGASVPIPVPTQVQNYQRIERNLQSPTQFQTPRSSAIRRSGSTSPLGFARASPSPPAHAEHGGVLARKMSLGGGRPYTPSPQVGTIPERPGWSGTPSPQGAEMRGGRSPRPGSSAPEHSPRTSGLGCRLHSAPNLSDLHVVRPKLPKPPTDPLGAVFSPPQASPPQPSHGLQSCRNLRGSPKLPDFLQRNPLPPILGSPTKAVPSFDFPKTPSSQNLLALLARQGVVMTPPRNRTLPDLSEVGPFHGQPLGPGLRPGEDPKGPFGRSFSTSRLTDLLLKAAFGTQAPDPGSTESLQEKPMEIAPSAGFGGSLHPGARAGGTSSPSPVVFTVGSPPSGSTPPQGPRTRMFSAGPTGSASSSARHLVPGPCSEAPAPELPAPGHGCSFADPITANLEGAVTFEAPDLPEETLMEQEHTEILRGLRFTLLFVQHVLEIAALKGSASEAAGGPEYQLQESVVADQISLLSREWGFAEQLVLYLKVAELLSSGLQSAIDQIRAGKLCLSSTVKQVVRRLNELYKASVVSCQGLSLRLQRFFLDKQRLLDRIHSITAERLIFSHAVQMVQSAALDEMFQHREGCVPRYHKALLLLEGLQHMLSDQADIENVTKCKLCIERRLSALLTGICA
To be noted: kinase ULK1.

The target of assay [4] is T4, panel of 370 protein kinases (Homo sapiens, UniProt O75914).
T4 construct: purchased Reaction Biology Corporation (assay service)
The settings on record: 2 h, kinase PAK3; read-out: % Enzyme Activity (relative to DMSO controls).

Assay [5] has as its target T5, panel of 370 protein kinases (Homo sapiens, UniProt Q16512).
T5 construct: purchased Reaction Biology Corporation (assay service)
The settings on record: 2 h, kinase PKN1/PRK1; read-out: % Enzyme Activity (relative to DMSO controls).

For assay [6], the target named is T6, panel of 370 protein kinases (Homo sapiens, UniProt Q6VAB6).
T6 construct: purchased Reaction Biology Corporation (assay service)
To be noted: 2 h, kinase KSR2; read-out: % Enzyme Activity (relative to DMSO controls).

The target in assay [7] is T7, panel of 370 protein kinases (Homo sapiens, UniProt O15075).
T7 construct: purchased Reaction Biology Corporation (assay service)
T7 sequence (O15075 whole entry): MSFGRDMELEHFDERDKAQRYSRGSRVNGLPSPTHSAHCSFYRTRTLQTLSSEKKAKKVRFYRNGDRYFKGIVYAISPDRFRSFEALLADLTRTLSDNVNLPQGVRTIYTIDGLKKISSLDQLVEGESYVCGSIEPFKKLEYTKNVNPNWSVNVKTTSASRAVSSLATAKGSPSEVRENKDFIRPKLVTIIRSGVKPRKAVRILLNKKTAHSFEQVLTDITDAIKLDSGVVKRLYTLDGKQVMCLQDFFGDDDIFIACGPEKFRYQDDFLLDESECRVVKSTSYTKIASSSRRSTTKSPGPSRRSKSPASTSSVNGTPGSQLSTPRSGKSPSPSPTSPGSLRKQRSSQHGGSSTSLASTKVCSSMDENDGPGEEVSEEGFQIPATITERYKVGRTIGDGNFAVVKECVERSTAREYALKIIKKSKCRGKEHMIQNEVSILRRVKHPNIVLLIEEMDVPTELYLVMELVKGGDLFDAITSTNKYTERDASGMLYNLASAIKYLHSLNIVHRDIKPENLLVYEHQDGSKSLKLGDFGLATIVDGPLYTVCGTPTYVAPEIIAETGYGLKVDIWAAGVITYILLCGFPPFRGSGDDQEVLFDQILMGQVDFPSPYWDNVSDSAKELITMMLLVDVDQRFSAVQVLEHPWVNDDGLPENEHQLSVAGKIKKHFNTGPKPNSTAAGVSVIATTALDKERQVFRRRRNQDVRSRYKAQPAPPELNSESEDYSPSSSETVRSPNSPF
The settings on record: kinase DCAMKL1.

In assay [8] the target is T8, panel of 370 protein kinases (Homo sapiens, UniProt Q8N5S9).
T8 construct: purchased Reaction Biology Corporation (assay service)
To be noted: 2 h, kinase CAMKK1; read-out: % Enzyme Activity (relative to DMSO controls).

Assay [9] has as its target T9, panel of 370 protein kinases (Homo sapiens, UniProt P10398).
T9 construct: purchased Reaction Biology Corporation (assay service)
The settings on record: 2 h, kinase ARAF; read-out: % Enzyme Activity (relative to DMSO controls).

The target of assay [10] is T10, panel of 370 protein kinases (Homo sapiens, UniProt O94921).
T10 construct: purchased Reaction Biology Corporation (assay service)
T10 sequence (O94921 whole entry): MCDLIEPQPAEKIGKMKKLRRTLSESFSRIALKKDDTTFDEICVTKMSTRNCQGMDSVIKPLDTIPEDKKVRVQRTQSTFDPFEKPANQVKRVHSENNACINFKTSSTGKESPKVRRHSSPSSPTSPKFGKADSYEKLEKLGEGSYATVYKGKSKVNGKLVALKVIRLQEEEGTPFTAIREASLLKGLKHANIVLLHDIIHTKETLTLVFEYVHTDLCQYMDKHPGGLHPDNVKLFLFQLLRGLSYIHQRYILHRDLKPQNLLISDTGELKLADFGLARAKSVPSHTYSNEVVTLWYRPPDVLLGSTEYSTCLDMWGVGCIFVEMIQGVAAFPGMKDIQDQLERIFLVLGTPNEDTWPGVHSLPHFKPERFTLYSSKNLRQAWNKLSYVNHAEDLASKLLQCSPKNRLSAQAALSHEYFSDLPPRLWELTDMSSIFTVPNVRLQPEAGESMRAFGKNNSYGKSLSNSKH
The settings on record: kinase CDK14/cyclin Y (PFTK1).

Assay [11] has as its target T11, panel of 370 protein kinases (Homo sapiens, UniProt P49840).
T11 construct: purchased Reaction Biology Corporation (assay service)
The settings on record: 2 h, kinase GSK3a; read-out: % Enzyme Activity (relative to DMSO controls).

Assay [12] addresses T12, panel of 370 protein kinases (Homo sapiens, UniProt P78368).
T12 construct: purchased Reaction Biology Corporation (assay service)
To be noted: kinase CK1g2.

Assay [13] concerns the target T13, panel of 370 protein kinases (Homo sapiens, UniProt Q8TF76).
T13 construct: purchased Reaction Biology Corporation (assay service)
To be noted: 2 h, kinase Haspin; read-out: % Enzyme Activity (relative to DMSO controls).

Assay [14] concerns the target T14, panel of 370 protein kinases (Homo sapiens, UniProt P42685).
T14 construct: purchased Reaction Biology Corporation (assay service)
The settings on record: 2 h, kinase FRK/PTK5; read-out: % Enzyme Activity (relative to DMSO controls).

Assay [15] addresses T15, panel of 370 protein kinases (Homo sapiens, UniProt P78362).
T15 construct: purchased Reaction Biology Corporation (assay service)
The settings on record: 2 h, kinase SRPK2; read-out: % Enzyme Activity (relative to DMSO controls).

The target of assay [16] is T16, panel of 370 protein kinases (Homo sapiens, UniProt Q76MJ5).
T16 construct: purchased Reaction Biology Corporation (assay service)
The settings on record: 2 h, kinase ERN2/IRE2; read-out: % Enzyme Activity (relative to DMSO controls).

Assay [17] has as its target T17, panel of 370 protein kinases (Homo sapiens, UniProt P42680).
T17 construct: purchased Reaction Biology Corporation (assay service)
The settings on record: 2 h, kinase TEC; read-out: % Enzyme Activity (relative to DMSO controls).

In assay [18] the target is T18, panel of 370 protein kinases (Homo sapiens, UniProt Q9H1R3).
T18 construct: purchased Reaction Biology Corporation (assay service)
To be noted: 2 h, kinase MLCK2/MYLK2; read-out: % Enzyme Activity (relative to DMSO controls).

Assay [19] deals with T19, panel of 370 protein kinases (Homo sapiens, UniProt P15056).
T19 construct: purchased Reaction Biology Corporation (assay service)
To be noted: 2 h, kinase BRAF; read-out: % Enzyme Activity (relative to DMSO controls).

The target of assay [20] is T20, panel of 370 protein kinases (Homo sapiens, UniProt Q9P0L2).
T20 construct: purchased Reaction Biology Corporation (assay service)
The settings on record: 2 h, kinase MARK1; read-out: % Enzyme Activity (relative to DMSO controls).

Assay [21] concerns the target T21, panel of 370 protein kinases (Homo sapiens, UniProt Q00536).
T21 construct: purchased Reaction Biology Corporation (assay service)
To be noted: 2 h, kinase CDK16/cyclin Y (PCTAIRE); read-out: % Enzyme Activity (relative to DMSO controls).

Assay [22] concerns the target T22, panel of 370 protein kinases (Homo sapiens, UniProt Q9UKI8).
T22 construct: purchased Reaction Biology Corporation (assay service)
To be noted: 2 h, kinase TLK1; read-out: % Enzyme Activity (relative to DMSO controls).

Values joined by “and” are separate entries in the source; they are usually repeats but may differ in a detail not shown here. Identical values can stand only once.

T12 sequence (P78368 whole entry): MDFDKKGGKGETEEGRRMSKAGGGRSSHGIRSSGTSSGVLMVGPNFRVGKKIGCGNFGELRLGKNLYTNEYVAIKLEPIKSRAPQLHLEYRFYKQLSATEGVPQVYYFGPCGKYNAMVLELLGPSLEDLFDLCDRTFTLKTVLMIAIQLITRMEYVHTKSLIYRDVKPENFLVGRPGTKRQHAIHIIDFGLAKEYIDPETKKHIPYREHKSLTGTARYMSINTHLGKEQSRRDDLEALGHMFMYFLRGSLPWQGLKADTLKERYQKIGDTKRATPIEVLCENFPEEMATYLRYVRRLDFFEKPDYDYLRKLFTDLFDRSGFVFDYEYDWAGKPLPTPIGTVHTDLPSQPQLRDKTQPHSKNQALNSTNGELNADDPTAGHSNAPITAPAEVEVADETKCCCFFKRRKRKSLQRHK
T9 sequence (P10398 whole entry): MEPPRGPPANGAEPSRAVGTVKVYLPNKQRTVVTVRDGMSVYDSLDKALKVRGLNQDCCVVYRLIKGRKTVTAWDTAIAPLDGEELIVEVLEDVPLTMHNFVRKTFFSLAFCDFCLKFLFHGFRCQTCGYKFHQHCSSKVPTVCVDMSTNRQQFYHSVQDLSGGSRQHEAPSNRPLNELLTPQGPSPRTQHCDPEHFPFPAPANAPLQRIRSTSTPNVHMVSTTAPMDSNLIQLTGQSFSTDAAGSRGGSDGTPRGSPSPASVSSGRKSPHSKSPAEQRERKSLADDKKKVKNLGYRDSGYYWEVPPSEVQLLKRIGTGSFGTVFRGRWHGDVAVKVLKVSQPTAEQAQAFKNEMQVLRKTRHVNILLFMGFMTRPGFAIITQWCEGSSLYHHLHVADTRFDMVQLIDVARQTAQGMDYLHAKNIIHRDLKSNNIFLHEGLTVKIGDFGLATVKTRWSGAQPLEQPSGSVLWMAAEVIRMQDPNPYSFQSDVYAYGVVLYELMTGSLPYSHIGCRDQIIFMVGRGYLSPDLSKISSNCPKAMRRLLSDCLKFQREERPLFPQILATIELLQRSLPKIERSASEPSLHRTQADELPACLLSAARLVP
T13 sequence (Q8TF76 whole entry): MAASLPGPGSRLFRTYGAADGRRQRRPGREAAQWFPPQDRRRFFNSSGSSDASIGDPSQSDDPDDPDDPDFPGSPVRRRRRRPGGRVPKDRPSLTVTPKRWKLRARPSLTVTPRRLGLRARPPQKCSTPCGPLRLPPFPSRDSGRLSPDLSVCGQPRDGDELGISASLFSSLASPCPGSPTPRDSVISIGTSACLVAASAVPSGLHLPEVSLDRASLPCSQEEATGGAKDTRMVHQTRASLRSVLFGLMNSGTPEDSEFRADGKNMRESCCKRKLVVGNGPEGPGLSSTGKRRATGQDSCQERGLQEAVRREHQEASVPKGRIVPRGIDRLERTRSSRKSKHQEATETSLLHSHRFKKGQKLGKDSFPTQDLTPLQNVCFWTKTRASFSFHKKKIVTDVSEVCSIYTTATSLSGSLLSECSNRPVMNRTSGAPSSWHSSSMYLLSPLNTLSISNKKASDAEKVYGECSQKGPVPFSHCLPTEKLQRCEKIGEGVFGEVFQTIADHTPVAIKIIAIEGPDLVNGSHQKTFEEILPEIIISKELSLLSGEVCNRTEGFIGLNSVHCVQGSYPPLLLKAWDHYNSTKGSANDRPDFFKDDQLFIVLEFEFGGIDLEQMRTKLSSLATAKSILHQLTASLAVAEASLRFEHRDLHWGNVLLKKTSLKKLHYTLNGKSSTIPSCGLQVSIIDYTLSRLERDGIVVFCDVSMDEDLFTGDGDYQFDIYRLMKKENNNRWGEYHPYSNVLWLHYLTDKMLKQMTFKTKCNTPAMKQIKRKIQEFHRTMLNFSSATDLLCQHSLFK

Take `CCN1CCN(C(=O)c2ccc(Nc3ncc(F)c(-c4ccc5nc(N(C)C)sc5c4)n3)nc2)CC1` [YK-2-69]: the remaining activity at 1 µM in [1] came out at 94.5%; in assay [2], 70.2%; in assay [4], 160%; in assay [5], 75.7%; in assay [6], 93%; in assay [8] it was 95.7%. Also, the remaining activity at 1 µM came out at 90.6% in assay [9]; 42.3% in assay [11]; 99% in assay [13]; 108% in assay [14]; 89.3% in assay [15]; 88.5% in assay [16]. The remaining activity at 1 µM in [17] worked out at 107%; in assay [18] it was 78.7%; in assay [19], 95.2%; in [20], 88%; in assay [21], 85.7%; in assay [22] it was 98.4%. In addition, the “% Enzyme Activity (relative to DMSO controls)” value in assay [3] is 101.30% and 99.93%; in assay [7], 112.23% and 104.96%; in [10], 116.35% and 115.11%; in [12], 92.19% and 91.13%.
